Assay results: patent publication US11390580B2, “Anti-fungals targeting the synthesis of fungal shingolipids” (THE RESEARCH FOUNDATION FOR THE STATE UNIVERSITY OF NEW YORK, priority 2014, dated 2022)
Values after ≈ are worked out from the molar mass of the structure shown. Values joined by “and” are separate entries in the source; they are usually repeats but may differ in a detail not shown here. Identical values can stand only once. Like-named read-outs stand apart in the source and are kept apart here.

Experiments:
C. neoformans H99 [1] = assay: Comparison studies, intravenous (CNS) cryptococcosis survival; assay type: in vivo, mice
Method: For survival studies, 4-week old CBA/J female mice (Jackson Laboratory, Bar Harbor, Me.) were used. Total of forty mice were infected by tail vein injection of 200 μL containing 10^5 cells of C. neoformans H99 and were randomly separated into 5 groups (8 mice per group). Treatment started within 2 hours of infection. The treated mice received an intraperitoneal injection of 1.2 mg/kg/day of BHBM, 1, amphotericin B or 10 mg/kg/day of fluconazole in 100 μL final volume of PBS containing 0.4% DMSO. Untreated mice, received 100 μL of PBS/0.4% DMSO. Mice were fed ad-libitum and monitored closely for sign of discomfort and meningitis. Mice showing abnormal gait, lethargy, tremor, significant loss of body weight, or inability to reach water or food were sacrificed and survival was counted until that day.

Candida albicans SC-5314 = assay: Animal studies for candidiasis (intravenous infection); assay type: in vivo, mice
Method: For survival studies, 8-week old CBA/J female mice (Jackson Laboratory) were used. Eight mice per treatment or control group were used. Mice were infected by intravenous inoculation of 100 μL containing 1×10^5 cells of Candida albicans SC-5314 strain. […] Untreated mice, received 100 μL of PBS/0.4% DMSO. Mice were feed ad-libitum and monitored closely for sign of discomfort. At the end of the survival study, tissue burden culture was performed in mice that survived the infection. Mice were sacrificed and their organs were extracted and homogenized in 10 ml sterile PBS using homogenizer. Organ homogenates were diluted 10 times in PBS, and 100 μL was plated on YPD agar plates and incubated at 30° C. for 72 hours for CFU count.

C. neoformans [2] = assay: In vitro killing assay (time-kill, CFU); assay type: cell-based, Cryptococcus neoformans
Method: At the illustrated time points, aliquots were taken and diluted and 100 μL was plated onto yeast peptone dextrose (YPD) plates. YPD plates were incubated in a 30° C. incubator and, after 72 hours, colony forming units (CFU) were counted and recorded.

C. neoformans (H99) = assay: Transmission electron microscopy of treated cells; settings: 4 μg/mL, 6 hours
Solubility = assay type: physicochemical; settings: at 1 mg/ml concentration
C. neoformans H99 [3] = assay: Animal studies for cryptococcosis (intranasal infection); assay type: in vivo, mice
P. murina [4] = assay: Animal studies for pneumocystosis, CD4-depleted mice; settings: mouse, in vivo
[5] = In vivo toxicity in uninfected mice; settings: treated daily for 60 days
[6] = test system: C. neoformans sphingolipids; assay: Sphingolipid levels by TLC and lipid mass spectrometry; assay type: cell-based, Cryptococcus neoformans; settings: TLC, confirmed by mass spectrometry
Method: Labeling fungal cells. […] Samples without drug were included as control. Before lipid extraction, lipid internal standards (C17 ceramide and C17 sphingosine) were added. Lipids were then extracted following the methods of […] and Bligh and Dyer and one fourth of the sample was aliquoted for determination of the inorganic phosphate. The remainder of the sample was subjected to base hydrolysis and then analyzed using LC/MS. Results were normalized with the inorganic phosphate levels.

[7] = In vitro toxicity, MTT assay; settings: mouse, J774.16 macrophage cells
Candida spp = assay: In vitro susceptibility testing; assay type: cell-based; settings: most Candida spp examined
C. neoformans [8] = assay: Synergistic assay (fractional inhibitory index, FIC)
[9] = test system: synthesis of GlcCer in mammalian (J774) cells; assay: In vivo labeling with 3H palmitate, TLC of GlcCer; assay type: cell-based, murine; settings: 3H palmitate labeling
P. murina [10] = test system: P. murina
C. neoformans [11] = assay: Resistance assay, daily passages in sub-MIC drug; settings: 15 days of passages below the MIC
[12] = test system: synthesis of GlcCer in C. neoformans cells; assay: In vivo labeling with 3H palmitate, TLC of GlcCer; settings: 3H palmitate labeling
Cryptococcus neoformans = assay: In vitro susceptibility testing (MIC); assay type: cell-based
L2 cell line = assay: In vitro toxicity; assay type: cell-based
A549 cell line = assay: In vitro toxicity; assay type: cell-based
P. murina [13] = test system: P. murina; remark: listed apart in the source
Pneumocystis jiroveci = assay: In vitro testing by ATP content (luciferin-luciferase); settings: read-out: percentage inhibition of ATP
Pneumocystis murina = assay: as above; settings: read-out: percentage inhibition of ATP

## C[C@@H]1[C@H](O)[C@@H](C)/C=C/C=C/C=C/C=C/C=C/C=C/C=C/[C@H](O[C@@H]2O[C@H](C)[C@@H](O)[C@H](N)[C@@H]2O)C[C@@H]2O[C@](O)(C[C@@H](O)C[C@@H](O)[C@H](O)CC[C@@H](O)C[C@@H](O)CC(=O)O[C@H]1C)C[C@H](O)[C@H]2C(=O)O [Amphotericin B]
C. neoformans H99 [1]; IP, 1.2 mg/kg/day BHBM, 1, amphotericin B, 10 mg/kg/day fluconazole
  average survival: 23.5 ± 6.5 days

## O=C(NN=Cc1ccc(O)c(Br)c1)c1cccc(Br)c1 [Compound 1, 3-bromo-N′-(3-bromo-4-hydroxybenzylidene) benzohydrazide]
Candida albicans SC-5314; 1.2 mg/kg/day intraperitoneally, after 21 days of infection
  mice alive: 75%
Candida albicans SC-5314; day 21, surviving treated mice
  clearance of infection (tissue burden): able to clear C. albicans infection
C. neoformans [2]; time-kill assay
  type of killing: time-dependent killing
C. neoformans [2]; within 24 hours
  dead cells: 100%
C. neoformans (H99)
  number of vacuoles per μm^2 of cell surface area: 0.93±0.54
Solubility
  DMSO required: 50%
C. neoformans H99 [3]; 1.2 mg/Kg/day intraperitoneally, up to 60 days
  mice surviving infection: 70%
C. neoformans H99 [3]; 1.2 mg/Kg/day, day 60
  fungal burden in brain: No C. neoformans cells were found in brains
C. neoformans H99 [3]; 1.2 mg/Kg/day, day 60, compared to infected untreated mice
  fungal burden in lung: decrease the fungal burden in the lung
C. neoformans H99 [3]; day 60
  brain histology: no fungal cells and normal structure
  lung histology: granulomatous response limited in few areas of the lung
P. murina [4]
  signs of toxicity: no signs of toxicity
[5]
  appearance, weight, physical activity and behavior: appeared normal
[6]
  sphingosine level: accumulation of sphingosines
[7]
  EC50 at 48 h: 50 µg/mL (≈ 126 µM)
Candida spp
  in vitro susceptibility: resistant
C. neoformans [8]; combined with Amphotericin B
  FIC index: 0.77
C. neoformans [8]; combined with Fluconazole
  FIC index: 0.47
C. neoformans [8]; combined with Tunicamycin
  interaction: additive
C. neoformans [8]; combined with caspofungin
  FIC index: 1
[9]
  inhibition of the synthesis of GlcCer: no significant changes
[9]; listed as #5285729
  inhibition of the synthesis of GlcCer: not in mammalian (J774) cells
P. murina [10]
  toxicity in mice immunosuppressed with corticosteroids: some toxicity
P. murina [10]; 1.25 mg/kg/day and 12.5 mg/kg/day for 14 days
  asci and troph burdens vs vehicle: significantly reduced
P. murina [10]; 1.25 and 12.5 mg/kg/day, 14 days
  survival vs control steroid negative controls: did not increase survival
C. neoformans [11]
  development of resistance: do not develop resistance
[12]
  inhibition of the synthesis of GlcCer: significantly inhibit the synthesis of GlcCer
Cryptococcus neoformans
  antifungal activity of derivatives: improved activity
Cryptococcus neoformans; Cryptococcus neoformans, read-out: MFC (minimum fungicidal concentration)
  MFC: 1.2 µg/mL (≈ 3.01 µM)
L2 cell line
  toxicity: slight to moderate toxicity
A549 cell line
  toxicity: slight to moderate toxicity
P. murina [13]; 14 days of treatment
  survival: improved survival
P. murina [13]; day 14
  number of asci in the lung: significantly decreased

## N=C(N)c1ccc(OCCCCCOc2ccc(C(=N)N)cc2)cc1 [Pentamidine, reference compound]
Pneumocystis jiroveci; 24 h
  inhibition at 1 µg/mL: 45.7%
Pneumocystis jiroveci; 48 h
  inhibition at 1 µg/mL: 86.5%
Pneumocystis jiroveci; 72 h
  inhibition at 1 µg/mL: 84.2%
Pneumocystis jiroveci; 96 h
  inhibition at 1 µg/mL: 81.4%
Pneumocystis murina; 24 h
  inhibition at 1 µg/mL: 78.2%
Pneumocystis murina; 48 h
  inhibition at 1 µg/mL: 80.3%
Pneumocystis murina; 72 h
  inhibition at 1 µg/mL: 74.1%
Pneumocystis murina; 96 h
  inhibition at 1 µg/mL: 27.8%

## OC(Cn1cncn1)(Cn1cncn1)c1ccc(F)cc1F [fluconazole]
C. neoformans H99 [1]; mouse, in vivo
  average survival: 10 ± 2 days and 10.0 ± 2.0 days
